# According to patent US8058314B2, “Conductance of improperly folded proteins through the secretory pathway and related methods for treating disease” (Yale University, priority 1999, dated 2011):
# Entries after “also recorded” stand apart in the source; their conditions may differ.
# Tests used:
# [1] = test system: ΔF508 CFTR; test: Confocal immunofluorescence localization of CFTR in CFPAC cells; type: cell-based, human
# Experimental: CFPAC and CFBE290^− epithelial cells were grown to confluence on 0.45 micron Transwell filter inserts (Corning Costar, Cambridge, Mass.) under the same conditions described for the short circuit current measurements. Prior to immunofluorescence analysis, filter grown cell monolayers were treated for 90 min with 1 μM thapsigargin at 37° C., present in both the apical and basolateral media compartments. The media was then changed to standard Iscove's growth medium or DMEM without thapsigargin, and cells were incubated for 2 or 4 hours at 37° C. Control cells underwent the same media changes but were not subjected to thapsigargin treatment.
# Following the second incubation, the filter grown monolayers were washed once with phosphate buffered saline supplemented with calcium and magnesium (150 mM NaCl, 10 mM NaPi, pH 7.4, 1 mM MgCl2, 0.1 mM CaCl2), after which they were fixed for 10 minutes in −20° C. 100% methanol. Immunofluorescence labeling was performed using the well characterized 169 and 181 antibodies (gift of W. Guggino, Johns Hopkins University) directed against the R domain and the prenucleotide binding fold of the CFTR protein, respectively (Crawford et al., Proc. Nat. Acad. Sci. 88:9262-9266 (1991)) and a monoclonal antibody directed against the α-subunit of the Na,K-ATPase (Gottardi and Caplan, J. Cell Biol. 121:283-293 (1993)).
# Incubations with primary and rhodamine-conjugated secondary antibodies were performed as previously described (Gottardi and Caplan, Id.). Labeled cells were examined using a Zeiss LSM 410 laser scanning confocal microscope. All images are the product of 8-fold line averaging. Contrast and brightness settings were chosen so that all pixels were in the linear range. YZ cross sections were generated using a 0.2 μmotor step.
# [2] = test system: α1-antitrypsin, null (Hong Kong); test: Secretion of α1-antitrypsin null (Hong Kong) from stably transfected mouse hepatoma cells, pulse-chase; type: cell-based; conditions: 1 μM thapsigargin for 3 hours during chase
# Experimental: Experiment 2 is repeated using a cell line that expresses a retention mutation for cc1-antitrypsin, such as the secretion-incompetent variant, null (Hong Kong), retained in stably transfected mouse hepatoma cells (J. Biol. Chem. 269:7514-7519 (1994)). Changes in the cell phenotype are assessed by assaying cells for secretion of a 1-antitrypsin (detailed description in J. Biol. Chem. 268:2001-2008 (1993)).
# Briefly, cell monolayers are pulse labeled with [^35S] methionine for 30 minutes, after which the radiolabeled media is removed and replaced with media containing an excess of unlabeled methionine. During the chase period, one set of monolayers is treated with 1 μM thapsigargin for 3 hours, while another set is incubated for 3 hours in drug free media. Secretion of α1-antitrypsin into the media is assessed by immunoprecipitation followed by electrophoresis and autoradiography.
# Results. Cells expressing the secretion-incompetent variant of α1-antitrypsin, null (Hong Kong), are pulse labeled for 30 minutes with [^35S] methionine, after which they were incubated in non-radioactive media for 3 hours in the presence or absence of 1 μM thapsigargin. After this chase incubation, the media is collected and subjected to immunoprecipitation with anti-α1-antitrypsin antibodies. Immunoprecipitates are analyzed by SDS-PAGE followed by autoradiography.
# [3] = test system: ΔF508 CFTR mice; test: Nasal potential difference (NPD) in CF mice homozygous for the ΔF508 mutation; type: in vivo; conditions: nebulized 1 μM thapsigargin or 50 microM curcumin, 3 hours/day for 7-14 days
# Excerpt: Materials and Methods. CF mice, which were the kind gift of Mitch Drumm, have had the ΔF508 mutation introduced into their endogenous copies of the CFTR gene by homologous recombination and are homozygous for the ΔF508 mutation. Construction of these mice is described in Zeiher, G. B., et al., A mouse model for the delta F508 allele of cystic fibrosis. J. Clin. Invest. 96: 2051-2064, 1995, and additional studies of these mice are described in Steagall W K and Drumm M L, Stimulation of cystic fibrosis transmembrane conductance regulator-dependent short-circuit currents across Delta F508 murine intestines. Gastroenterology, 116(6):1379-88, 1999.
# Nasal potential difference was measured essentially as described in Grubb, B. R., Vick, R. N., and Boucher, R. C., Hyperabsorption of Na^+ and raised Ca^2+-mediated Cl^− secretion in nasal epithelia of CF mice, Am. […]
# After obtaining a stable baseline reading, infusion of Ringers solution was begun, and recording was initiated. After 5 mins of stable reading, the solution was changed successively to: (i) Ringer solution containing amiloride 10^−5 M; (ii) Ringer solution containing 0 mM chloride and 10^−5 M amiloride; (iii) Ringer solution containing 0 mM chloride, 10^−5 M amiloride, and 10^−5 M isoproterenol. NPD was recorded for each solution for 5 minutes of stable values. […]
smiles,measurement,setting,value
C/C=C(/C)C(=O)O[C@H]1C(C)=C2[C@H]([C@@H]1OC(=O)CCCCCCC)[C@@](C)(OC(C)=O)C[C@H](OC(=O)CCC)[C@@]1(O)[C@H]2OC(=O)[C@@]1(C)O [thapsigargin],CFTR staining pattern,"[1]; 1 μM thapsigargin 90 min, en face and XZ cross section",bright labeling of apical microvilli could be detected in most of the cells
same,thapsigargin effect on ΔF508-CFTR surface appearance with protein synthesis blocked,"[1]; 10 mm cycloheximide during treatment and chase, cell line not stated, data not shown",did not abrogate the thapsigargin effect
same,CFTR staining pattern,[1]; 2 hours after 1 μM thapsigargin 90 min,exhibited only apical staining
same,CFTR staining pattern,"[1]; 4 hours after 1 μM thapsigargin 90 min, data not shown",CFTR staining both at the apical membrane and in the ER
same,thapsigargin-induced delivery of ΔF508-CFTR to the cell surface in BAPTA-preloaded cells,"[1]; cell line not stated, data not shown",did not inhibit the thapsigargin-induced delivery of ΔF508-CFTR to the cell surface
same,radiolabeled α1-antitrypsin in the media,[2],Radiolabeled α1-antitrypsin protein is present in the media
same,basal NPD of treated ΔF508 CF mice,[3],markedly reduced relative to that in untreated CF mice; also recorded: dramatically reduce the basal NPD; also recorded: significantly smaller baseline NPD
